One may read the IC50 as the concentration at which inhibition is half-maximal.

The values that follow come from article PMC11407758, “Integrated stress response (ISR) activation and apoptosis through HRI kinase by PG3 and other p53 pathway-restoring cancer therapeutics” (Oncotarget, 2024).

For one data set, the system named is ATF4. The data set can be described thus: Western blot, ATF4 induction. In kind it is cell-based, human. Particulars: five cancer cell lines, 24 h. How it is done:
(§1) Figure 4 Activation of ATF4 and up-regulation of typical p53 target genes. (A–E) Western blot analysis of p53 protein levels and upregulation of ATF4, PUMA, DR5 and p21. Cells were treated for 24 h with indicated compounds, concentrations and cell lines. Abbreviations: S.E.: Short exposure; L.E.: Long exposure.
(§2) After treatment, protein lysates were collected for Western blot analysis. A total of 15 μg of protein was used for SDS-PAGE. After primary and secondary antibody incubations, the signal was detected by a chemiluminescence detection kit, imaged by Syngene (Imgen Technologies). Antibodies for NAG-1 (GDF15) and P53 were from Santa Cruz Biotechnology; for caspase 8, cleaved caspase 8, caspase 9, caspase 3, cleavage PARP, eIF2α, p-eIF2α (Ser51), CHOP, ATF4, DR5, and PUMA were from Cell Signaling Technology. Noxa and p21 were from Calbiochem. Ran was from BD Biosciences.
(In western blotting, separated proteins are transferred to a membrane and probed.)

In data set [1] the test system is HCT116 (wild-type), SW480 (R273H, P309S), and DLD1 (S241F). The data set can be described thus: Cell viability assay in colorectal cancer cell lines (Figure 1E). In kind it is cell-based, human. Particulars: 72 h. How it is done:
(§3) Figure 1 PG3 inhibits cell proliferation and growth in a p53-indepent manner. (A–E) Cell viability assay, dose response curves and IC50 value measurements in a panel of cancer cell lines and normal cells. Cells were treated with different concentrations of PG3, PG3-Oc (Oc), obatoclax (Ob), prodigiosin (P) or DMSO for 72 h. Luciferase activity was imaged by the IVIS Imaging System after treatment. Cell viability data were normalized to those of DMSO treatment control in each cell line and data analyses were performed using PRISM4 software. IC50 data are expressed as the mean ±SD (normal; n = 3).
(§4) Cells were seeded in 96-well plates (6 × 10^3 cells/well). Cells were treated with different concentrations of compounds or dimethyl sulfoxide (DMSO) as a control for 72 hours. The cell viability was assessed by CellTiterGlo bioluminescent cell viability assay (Promega), following the manufacturer’s protocol. Bioluminescence imaging was measured using the IVIS imager. The percentage of cell viability (mean ± SEM) at each dose was calculated against the respective DMSO control. The IC50 values were determined from the sigmoidal dose-response curves using GraphPad Prism.

Data set [2] concerns HT29, TOV-112D, isogenic HCT116 cell lines, HFF-1 and MRC5. The data set can be described thus: Cell viability assay, panel of cancer cell lines and normal cells (results in words). In kind it is cell-based, human. The settings on record: 10 μM; all cell lines tested and normal cells. The method, then: as §3, with “2 p53-dependent inhibition of” for “1 PG3 inhibits”, “is only observed at specific concentrations. (A–J)” for “and growth in a p53-indepent manner. (A–E)”, “ZMC1, CP-313908, APR-246, Ellipticine, Nutalin-3a” for “PG3, PG3-Oc (Oc), obatoclax (Ob), prodigiosin (P)”
as §4

Data set [3] has as its system MRC5 (human lung fibroblast cell with wild-type p53). The data set can be described thus: Cell viability assay (CellTiterGlo), MRC5 normal cells. Type of data set: cell-based. The settings on record: Homo sapiens, MRC5, 72 h, read-out: IC50 values, MRC5 (WT). The method, then:
as §3
as §3, with “2 p53-dependent inhibition of” for “1 PG3 inhibits”, “is only observed at specific concentrations. (A–J)” for “and growth in a p53-indepent manner. (A–E)”, “ZMC1, CP-313908, APR-246, Ellipticine, Nutalin-3a” for “PG3, PG3-Oc (Oc), obatoclax (Ob), prodigiosin (P)”
as §4
(In ATP-based viability assays light output follows the ATP content of the culture.)

For data set [4] the following is noted: cited from earlier work.
For a further data set, the system named is HT29 (R273H). The data set can be described thus: Cell viability assay (CellTiterGlo), HT29. In kind it is cell-based, human. The settings on record: Homo sapiens, HT-29; 72 h, CellTiterGlo. How it is done: as §3
as §3, with “2 p53-dependent inhibition of” for “1 PG3 inhibits”, “is only observed at specific concentrations. (A–J)” for “and growth in a p53-indepent manner. (A–E)”, “ZMC1, CP-313908, APR-246, Ellipticine, Nutalin-3a” for “PG3, PG3-Oc (Oc), obatoclax (Ob), prodigiosin (P)”
as §4

The subject of the next data set is DR5. The data set can be described thus: Western blot, DR5 induction. Type of data set: cell-based, human. The settings on record: five cell lines, 24 h. How it is done: as §1, §2
The subject of a further data set is TOV-112D (R175H). The data set can be described thus: Cell viability assay (CellTiterGlo), TOV-112D. Type of data set: cell-based, human. The settings on record: Homo sapiens, TOV112D; 72 h, CellTiterGlo; read-out: IC50 values, TOV-1120 (R175H) (converted). The method, then:
as §3
as §3, with “2 p53-dependent inhibition of” for “1 PG3 inhibits”, “is only observed at specific concentrations. (A–J)” for “and growth in a p53-indepent manner. (A–E)”, “ZMC1, CP-313908, APR-246, Ellipticine, Nutalin-3a” for “PG3, PG3-Oc (Oc), obatoclax (Ob), prodigiosin (P)”
as §4

Another data set concerns HCT116 (P53−/−). The data set can be described thus: Cell viability assay (CellTiterGlo), HCT116 p53-/-. Type of data set: cell-based, human. Particulars: Homo sapiens, HCT-116; 72 h, CellTiterGlo. How it is done: as §3
as §3, with “2 p53-dependent inhibition of” for “1 PG3 inhibits”, “is only observed at specific concentrations. (A–J)” for “and growth in a p53-indepent manner. (A–E)”, “ZMC1, CP-313908, APR-246, Ellipticine, Nutalin-3a” for “PG3, PG3-Oc (Oc), obatoclax (Ob), prodigiosin (P)”
as §4

Another data set has as its system HCT116 (WT). The data set can be described thus: Cell viability assay (CellTiterGlo), HCT116 WT. Type of data set: cell-based, human. The settings on record: Homo sapiens, HCT-116; 72 h, CellTiterGlo. The method, then: as §3
as §3, with “2 p53-dependent inhibition of” for “1 PG3 inhibits”, “is only observed at specific concentrations. (A–J)” for “and growth in a p53-indepent manner. (A–E)”, “ZMC1, CP-313908, APR-246, Ellipticine, Nutalin-3a” for “PG3, PG3-Oc (Oc), obatoclax (Ob), prodigiosin (P)”
as §4

A further data set has as its system HCT116 (R175H). The data set can be described thus: Cell viability assay (CellTiterGlo), HCT116 R175H. Type of data set: cell-based, human. The settings on record: Homo sapiens, HCT-116; 72 h, CellTiterGlo. The method, then:
as §3
as §3, with “2 p53-dependent inhibition of” for “1 PG3 inhibits”, “is only observed at specific concentrations. (A–J)” for “and growth in a p53-indepent manner. (A–E)”, “ZMC1, CP-313908, APR-246, Ellipticine, Nutalin-3a” for “PG3, PG3-Oc (Oc), obatoclax (Ob), prodigiosin (P)”
as §4

For a further data set, the system named is PUMA. The data set can be described thus: Western blot, PUMA induction. Type of data set: cell-based, human. The settings on record: five cell lines, 24 h. The method, then:
as §1, §2

The test system of the next data set is p53 protein. The data set can be described thus: Western blot, p53 protein levels. In kind it is cell-based, human. How it is done: Cells were treated for 24 h with indicated compounds, concentrations and cell lines. Abbreviations: S.E.: Short exposure; L.E.: Long exposure.
as §2

For data set [5], the system named is HFF-1 (human foreskin fibroblast cell with wild-type p53). The data set can be described thus: Cell viability assay (CellTiterGlo), HFF-1 normal cells. Type of data set: cell-based. The settings on record: Homo sapiens, HFF-1; 72 h, CellTiterGlo, normal cells; read-out: IC50 values, HFF-l (WT). The method, then:
as §3
as §3, with “2 p53-dependent inhibition of” for “1 PG3 inhibits”, “is only observed at specific concentrations. (A–J)” for “and growth in a p53-indepent manner. (A–E)”, “ZMC1, CP-313908, APR-246, Ellipticine, Nutalin-3a” for “PG3, PG3-Oc (Oc), obatoclax (Ob), prodigiosin (P)”
as §4

Data set [6] concerns SW480 cells carrying a p53-responsive luciferase reporter. The data set can be described thus: p53-responsive reporter assay. In kind it is cell-based, human. The method, then:
SW480 cells carrying a p53-responsive luciferase reporter were used for assay of functional restoration of mutant p53. Cells were seeded in 96-well plates (5 × 10^4 cells/well) and were treated with compounds indicated for 6 and 15 h, respectively. Then, D-luciferin was added to each well with final concentration 100 μg/mL, and cells were imaged by using an IVIS Imaging System to detect luciferase activity.
p53-mutant SW480 human colon cancer cells, stably expressing a p53-responsive luciferase reporter, were used to assay functional restoration p53 pathway-dependent transcription in mutant p53-expressing tumor cells. Cells were seeded in 96-well plates (5 × 10^4 cells/well) and were treated with small-molecule compounds for 6 and 15 h, respectively. Then, D-luciferin was added to each well at a final concentration of 100 μg/mL, and cells were imaged by using an IVIS Imaging System (Xenogen) to detect luciferase activity.
(In general: In a reporter assay the amount or activity of a reporter protein is the signal.)

The subject of the next data set is p21. The data set can be described thus: Western blot, p21 induction. Type of data set: cell-based, human. Particulars: five cell lines, 24 h. The method, then: as §1, §2

Take `CCCCCCCCOC(=O)CCc1c(C)[nH]c(/C=C2\N=C(c3ccc[nH]3)C=C2OC)c1C` [PG3-Oc]: the “upregulation of ATF4” value with ATF4 is “induce upregulation of ATF4”. The “potency compared among PG3-Oc, prodigiosin and Obatoclax” value in data set [1] is listed as “same potency”. For the same compound, in data set [2], the “toxicity at 10 μM” value is on record as “too toxic”. The IC50 in [3] is 78 nM; in the data set on HT29 (R273H) it was 31 nM; in the data set with TOV-112D (R175H), 38 nM; in the data set on HCT116 (P53−/−), 62 nM; in the data set with HCT116 (WT), 47 nM; in the data set on HCT116 (R175H) it was 52 nM. Besides, the IC50 in data set [5] stood at 306 nM. For the same compound, in [4], the stability in vivo result was “unstable in vivo”. Also, the “upregulation of DR5” value in the data set with DR5 is given as “consistently induce upregulation”. The “upregulation of PUMA” value in the data set on PUMA is given as “consistently induce upregulation”. Further, the “wild-type p53 protein level” value with p53 protein (HCT116, 24 h) was “do not upregulate expression”. The “endogenous mutant p53 R273H protein level” value in the data set with p53 protein (HT29, 24 h) is on record as “no effects on stability”. Moreover, the “endogenous mutant p53 R175H protein level” value with p53 protein (TOV-112D, 24 h) is on record as “no effects on stability”. Moreover, the “exogenous mutant p53 R175H protein level” value with p53 protein (engineered HCT116-R175H cells, 24 h) is given as “stabilize”. For the same compound, the p53-responsive reporter activity result in data set [6] (1.11 μM, 6 hour and 15 hour time points) is recorded as “do not activate reporter activity”; in data set [6] (10 μM, 6 hours) it was “activation”. Besides, the “upregulation of p21” value with p21 was “consistently induce upregulation”.
